≈ marks a conversion by molar mass, not a printed value. Where two headings read alike, the source gives them in different places.

Test [1] relates to S. pneumoniae R6 ΔvanZ:vanZ. The test is described as follows: MIC, broth microdilution, vanZ-reverted strain. Format: cell-based, Streptococcus pneumoniae. The source says:
(§1) Strain Sp539 (ΔvanZ) was constructed using a Sweet Janus cassette-based two-step negative selection strategy ([Sung et al., 2001]; [Li et al., 2014]). The Sweet Janus cassette contains the kanamycin resistance gene, the recessive rpsL gene and the sacB gene, which confers sucrose sensitivity (Su^S), as counterselectable markers. In the first step, 1000 bp fragments corresponding to the upstream and downstream flanking regions of the vanZ gene (spr0050) were amplified from the wild-type chromosomal DNA with the primer pairs KB60/KB61 and KB62/KB63, respectively. The Sweet Janus cassette (2807 bp) amplified from the Sweet Janus cassette DNA fragment with the primers DP1/DP2 was attached to the regions flanking vanZ by fusion PCR using primers KB60 and KB63. The resulting PCR fragment was used for the transformation of the S. pneumoniae R6 strain, and Kan^R/Su^S transformants (Sp537, vanZ:kan sacB) were selected. The PCR fragments consisting of the upstream and downstream flanking regions of the vanZ gene were amplified by the KB60/KB65 and KB64/KB63 primer pairs, respectively, and fused by overlap extension using primers KB60/KB63. The resulting fragment was transformed into the Sp537 strain to obtain Sp539 (Su^R/Kan^S). To complement the vanZ deletion, we constructed strain Sp635 (Su^R/Kan^S; ΔvanZ:vanZ) by transforming strain Sp537 (Kan^R/Su^S) with the PCR fragment amplified with the primers KB60 and KB63 that contained wild-type loci using R6 chromosomal DNA as a template.
(§2) Minimal Inhibitory Concentrations were measured by the broth microdilution method according to ISO standard 20776-1 (EUCAST 2019). S. aureus strains with pRMC2, pRMC2:vanZTei and pRMC2:vanZg plasmids were cultured in the presence of 25 μg/ml chloramphenicol and 100 ng/ml AnhTet (Sigma-Aldrich, Germany) to induce vanZ gene expression. All measurements were performed twice in triplicate. S. aureus ATCC29213 was used as a control. MIC values of clinically accepted glycopeptide antibiotics were interpreted according to EUCAST clinical breakpoints (EUCAST, 2019).
In general terms: Broth dilution looks for growth in wells or tubes with falling amounts of substance.

Test [2] concerns S. pneumoniae R6. The test is described as follows: MIC, broth microdilution, wild type. Format: cell-based, Streptococcus pneumoniae. To be noted: ISO 20776-1, twice in triplicate. As to the method:
as §2

For test [3], the system named is S. aureus RN4220 pRMC2:vanZg. Kind of test: MIC, broth microdilution, strain expressing vanZg. It is filed as cell-based, Staphylococcus aureus. To be noted: for MIC: S. aureus RN4220 vanZg, broth microdilution, ISO 20776-1, 25 μg/ml chloramphenicol and 100 ng/ml AnhTet, twice in triplicate; for decrease of susceptibility of S. aureus by expression of vanZg: MIC of RN4220 vanZg versus RN4220 pRMC2.
Text: (§3) The vanZTei and vanZg genes and their ribosome binding sites were amplified from the plasmid pAT398 ([Arthur et al., 1995]) and E. faecium Aus0004 chromosomal DNA, respectively, using the primers TecVanZ_SacI_F, TecVanZ_R, gVanZ_SacI_F, and gVanZ_R (Supplementary Table S1). The PCR products were cloned into the pRMC2 shuttle vector under the control of the anhydrotetracycline (AnhTet)-inducible promoter Pxyl/tetO using SacI and EcoRI restriction sites, resulting in the constructs pRMC2:vanZTei and pRMC2:vanZg. The constructs were confirmed by sequencing and then electroporated into S. aureus RN4220. Using the same procedure, we prepared the constructs pRMC2:vanZTei-His and pRMC2:vanZg-His encoding C-terminal His-tagged VanZ variants. However, primers TecVanZhis_R and gVanZhis_R replaced the reverse primers TecVanZ_R and gVanZ_R.
as §2

Test [4] concerns S. aureus ATCC29213. Kind of test: MIC, broth microdilution, control strain. Format: cell-based, Staphylococcus aureus. To be noted: ISO 20776-1 (EUCAST 2019), performed twice in triplicate. The procedure: as §2
The subject of test [5] is S. aureus RN4220 pRMC2:vanZTei. The test is described as follows: MIC, broth microdilution, strain expressing vanZTei. To be noted: for MIC: S. aureus RN4220 vanZTei, broth microdilution, ISO 20776-1, 25 μg/ml chloramphenicol and 100 ng/ml AnhTet, twice in triplicate; for decrease of susceptibility of S. aureus by expression of vanZTei: MIC of RN4220 vanZTei versus RN4220 pRMC2. It is filed as cell-based, Staphylococcus aureus.
Text: as §3, §2

Test [6] concerns S. aureus RN4220 pRMC2. Kind of test: MIC, broth microdilution, empty vector strain. It is filed as cell-based, Staphylococcus aureus. As to conditions: ISO 20776-1, 25 μg/ml chloramphenicol and 100 ng/ml AnhTet, twice in triplicate.
Text: as §3, §2

Test [7] deals with S. pneumoniae R6 ΔvanZ. Kind of test: MIC, broth microdilution, vanZ knockout. Format: cell-based, Streptococcus pneumoniae.
Text: as §1, §2

Setting [8] is: Streptococcus pneumoniae, read-out: MIC.
Where [9] appears, read: Staphylococcus aureus, read-out: MIC.
The mark [10] stands for this setting: Staphylococcus aureus, ATCC29213, S. aureus ATCC 29213 (control), read-out: MIC.
The mark [11] stands for this setting: Staphylococcus aureus, RN4220PRMC2, S. aureus RN4220 pRMC2 (no VanZ), read-out: MIC.
The mark [12] stands for this setting: S. pneumoniae R6 ΔvanZ:vanZ (complemented), broth microdilution, ISO 20776-1, twice in triplicate.
The mark [13] stands for this setting: S. pneumoniae R6 ΔvanZ, broth microdilution, ISO 20776-1, twice in triplicate.
The mark [14] stands for this setting: S. aureus RN4220 pRMC2 (no VanZ).

In the case of `CC[C@H]1OC(=O)[C@H](C)[C@@H](O[C@H]2C[C@@](C)(OC)[C@@H](O)[C@H](C)O2)[C@H](C)[C@@H](O[C@@H]2O[C@H](C)C[C@H](N(C)C)[C@H]2O)[C@](C)(O)C[C@@H](C)C(=O)[C@H](C)[C@@H](O)[C@]1(C)O` [ERY, erythromycin], the MIC in test [1] (Streptococcus pneumoniae), in test [2] (setting [8]), in test [3] (setting [9]), in test [4] (setting [10]), in test [5] (setting [9]) and in test [6] (setting [11]) was 0.125 µg/mL (≈ 0.17 µM) in each case. Also, the lowest concentration to inhibit growth in test [7] (Streptococcus pneumoniae) (MIC) was 0.125 µg/mL (≈ 0.17 µM).
Consider oritavancin, for which the MIC in test [1] (setting [12]) came out at 0.0078 µg/mL; in test [2], 0.0078 µg/mL; in test [3], 0.25 µg/mL; in test [4] (S. aureus ATCC 29213 (control)), 0.125 µg/mL; in test [7] (setting [13]) it was 0.0039 µg/mL. The “decrease of susceptibility of S. aureus by expression of vanZg” value (“decrease of susceptibility … of vanZg” for short) in test [3] is on record as “two times”. Besides, the “decrease of susceptibility of S. aureus by expression of vanZTei” value (“decrease of susceptibility … of vanZTei” below) in test [5] is reported as “less or no activity”.
In the case of teicoplanin, the MIC in test [2] worked out at 0.125 µg/mL; in test [3], 8 µg/mL; in test [4] (S. aureus ATCC 29213 (control)), 0.125 µg/mL; in test [5], 1 µg/mL; in test [6] (setting [14]) it was 0.5 µg/mL; in test [7] (setting [13]) it was 0.03125 µg/mL. In addition, the “decrease of susceptibility … of vanZg” value in test [3] worked out at 16 fold. Also, the “decrease of susceptibility … of vanZTei” value in test [5] is given as “less or no activity”.
Regarding `CC1(C)S[C@@H]2[C@H](NC(=O)C(C(=O)O)c3ccccc3)C(=O)N2[C@H]1C(=O)O` (some centres unmarked) [CARB, carbenicillin], the MIC in test [1] (Streptococcus pneumoniae) was 0.0625 µg/mL (≈ 0.165 µM); in test [2] (setting [8]), 0.0625 µg/mL (≈ 0.165 µM); in test [3] (setting [9]) it was 0.25 µg/mL (≈ 0.661 µM); in test [4] (setting [10]), 0.25 µg/mL (≈ 0.661 µM); in test [5] (setting [9]) it was 0.25 µg/mL (≈ 0.661 µM); in test [6] (setting [11]), 0.25 µg/mL (≈ 0.661 µM). Besides, the MIC in test [7] (Streptococcus pneumoniae) was found to be 0.0625 µg/mL (≈ 0.165 µM).
As for `CNC(C)C1CCC(N)C(OC2C(N)CC(N)C(OC3OCC(C)(O)C(NC)C3O)C2O)O1` (centres unmarked) [GEN, gentamicin], the MIC in test [1] (Streptococcus pneumoniae) was determined as 0.25 µg/mL (≈ 0.523 µM); in test [2] (setting [8]), 0.25 µg/mL (≈ 0.523 µM); in test [3] (setting [9]) it was 1 µg/mL (≈ 2.09 µM); in test [4] (setting [10]), 1 µg/mL (≈ 2.09 µM); in test [5] (setting [9]) it was 1 µg/mL (≈ 2.09 µM); in test [6] (setting [11]) it was 1 µg/mL (≈ 2.09 µM). Also, in test [7] (Streptococcus pneumoniae), the MIC came out at 0.25 µg/mL (≈ 0.523 µM).
In the case of dalbavancin, the MIC in test [2] came to 0.03125 µg/mL; in test [3], 0.5 µg/mL; in test [4] (S. aureus ATCC 29213 (control)), 0.125 µg/mL; in test [7] (setting [13]), 0.0078 µg/mL. The “decrease of susceptibility … of vanZg” value in test [3] is “four-fold”. In addition, the “decrease of susceptibility … of vanZTei” value in test [5] was “less or no activity”.
For the molecule vancomycin, the MIC in test [1] (setting [12]) was found to be 0.25 µg/mL; in test [2], 0.25 µg/mL; in test [3], 1 µg/mL; in test [4] (S. aureus ATCC 29213 (control)), 0.25 µg/mL; in test [5], 0.5 µg/mL; in test [6] (setting [14]), 0.5 µg/mL. The same molecule had an MIC in test [7] (setting [13]) of 0.25 µg/mL. Further, in test [7] (MIC of S. pneumoniae R6 ΔvanZ versus R6), the “sensitivity of the ΔvanZ mutant compared with the wild-type strain” value is recorded as “not”.

As a reminder, the MIC is the lowest concentration that inhibits growth of the organism.
